Structures can show the parent of a compound that is named as a salt. Each block holds one molecule with its values, some of them ahead of it.
Assays:
[1] = system: prostate cancer cell line (PC-3); assay: Cytotoxicity, MTS method, time course; assay type: cell-based; details: time course observation of viable cell count, FIG. 3
Method: (§1) Various cancer cell lines were seeded in 96-well plates at a density of 3 to 5000 cells per well, and on the following day, any of the novel compounds was added thereto such that the final concentrations of the compounds were 0 to 100 μM (the concentration of the solvent DMSO was 0.5%) and the plates were incubated for 24 to 72 hours. The cytotoxicity to cancer cells can be examined by calculating the viable cell count by the MTS method (CellTiter 96 Aqueous One Solution Cell Proliferation Assay, Promega) after incubation. Here, the MTS method is a viable cell count calculation method using the fact that a tetrazolium compound (MTS) is converted into a chromogenic formazan product by an oxidoreductase of viable cells. In the measurement method, to each well of a 96-well plate containing 100 μl of a culture medium and sample cells, 20 μl of CellTiter 96 Aqueous One Solution Reagent is added and the plate was incubated in an incubator at 37° C. for 90 to 120 minutes, and then, the absorbance at 490 nm is measured using a 96-well plate reader.

[2] = system: esophageal squamous cell carcinoma cell line (T.Tn); assay: Cytotoxicity, MTS method; assay type: cell-based
Method: as §1

[3] = system: uterine cancer cell line (HeLa); assay: Cytotoxicity, MTS method; assay type: cell-based; details: at 100 μM and 10 μM, even at 1 μM to some cell lines, FIG. 2
Method: as §1

[4] = system: normal renal cell line (293); assay: Cytotoxicity, MTS method; assay type: cell-based; details: at 100 μM and 10 μM, even at 1 μM to some cell lines, FIG. 2
Method: as §1

[5] = system: lung cancer cell line (A549); assay: Cytotoxicity, MTS method; assay type: cell-based
Method: as §1

[6] = system: pancreatic cancer cell line (MiaPaCa-2); assay: Cytotoxicity, MTS method; assay type: cell-based; details: at 100 μM and 10 μM, even at 1 μM to some cell lines, FIG. 2
Method: as §1

[7] = system: oral squamous cell carcinoma cell line (HSC-3); assay: Cytotoxicity, MTS method; assay type: cell-based; details: at 100 μM and 10 μM, even at 1 μM to some cell lines, FIG. 2
Method: as §1

[8] = molecular target: T1, recombinant GST-Pim-1 kinase (Homo sapiens, UniProt P11309); assay: In vitro system for measurement of Pim-1 kinase activity (phosphorylation of biotinylated p21 peptide, OD450); assay type: biochemical; details: ATP 10 μM, 25° C., 30 minutes; read-out: 50% inhibitory concentration (IC50) of Pim-1 kinase activity
T1 construct: GST
T1 sequence (P11309 whole entry): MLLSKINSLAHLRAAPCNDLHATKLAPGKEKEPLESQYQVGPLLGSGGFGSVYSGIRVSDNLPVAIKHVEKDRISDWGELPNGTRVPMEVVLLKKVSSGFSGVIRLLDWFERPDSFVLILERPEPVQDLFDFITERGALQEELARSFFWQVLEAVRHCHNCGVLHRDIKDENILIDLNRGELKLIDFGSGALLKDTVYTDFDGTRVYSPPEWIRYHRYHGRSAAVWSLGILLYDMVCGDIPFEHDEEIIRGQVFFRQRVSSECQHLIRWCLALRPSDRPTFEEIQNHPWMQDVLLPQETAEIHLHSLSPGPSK
Method: The sensitivity (IC50: inhibitory concentration of 50% of activity) and concentration dependence of these novel compounds to inhibition of Pim-1 activity were studied (using the following system).
In Vitro System for Measurement of Pim-1 Kinase Activity:
(1) Add a biotinylated p21 peptide (1 mM) as a substrate to be phosphorylated by Pim-1 and a recombinant GST-Pim-1 kinase (18 μg/ml) to a kinase buffer.
(2) Add a test compound (dissolved in 2% DMSO) or 2% DMSO (a solvent control) thereto.
(3) Add ATP (10 μM) thereto and incubate the mixture at 25° C. for 30 minutes (initiate a kinase reaction).
(4) Add EDTA (10 mM) thereto to stop the reaction.
(5) Add 10 μl of the kinase reaction mixture to a 96-well plate (which has been blocked in advance) coated with avidin, and incubate the plate at room temperature for 60 minutes.
(6) Wash the wells with a washing buffer three times.
(7) Add a diluted solution (1:500) of an antibody which recognizes phosphorylated p21 (Thr145) to the wells in an amount of 100 μl per well and incubate the plate for 90 minutes.
(8) Wash the wells with a washing buffer three times.
(9) Add a diluted solution (1:2000) of a secondary antibody which […] to the wells in an amount of 100 μl per well and incubate the plate for 60 minutes.
(10) Wash the wells with a washing buffer five times.
(11) Add a substrate (TMB) for peroxidase to the wells and incubate the plate for 8 minutes. Then, stop the reaction with 2 M H2SO4 and perform the colorimetric determination using a microplate reader (OD450).

[9] = system: pancreatic cancer cell line (BxPC-3); assay: Cytotoxicity, MTS method, time course; assay type: cell-based; details: FIG. 4
Method: as §1

Structure (SMILES): O=C1Nc2ccccc2/C1=C\c1ccc(/C=C2/C(=O)Nc3ccccc32)o1 [compound (1), (3E)-3[(5-((E)-(2-oxoindolin-3-ylidene)methyl)furan-2-yl)methylene]indoline-2-one]
cell lethal effect [1]: has a cell lethal effect | cytotoxicity ([2]; T.Tn, at 100 μM and 10 μM, even at 1 μM to some cell lines, FIG. 2): remarkable cytotoxicity | cytotoxicity [3]: remarkable cytotoxicity | cytotoxicity [4]: remarkable cytotoxicity | cytotoxicity ([5]; A549, at 100 μM and 10 μM, even at 1 μM to some cell lines, FIG. 2): remarkable cytotoxicity | cytotoxicity [6]: remarkable cytotoxicity | cytotoxicity [7]: remarkable cytotoxicity | IC50 [8]: 50 nM

Structure (SMILES): CC(=O)N1C(=O)/C(=C/c2ccc(/C=C3/C(=O)Nc4ccccc43)o2)c2ccccc21 [compound (3), (3E)-3-((5-((E)-(1-acetyl-2-oxoindolin-3-ylidene)methyl)furan-2-yl)methylene)indolin-2-one]
IC50 [8]: 800 nM

Structure (SMILES): CC(=O)N1C(=O)/C(=C/c2ccc(/C=C3/C(=O)Nc4ccc(C(=O)O)cc43)o2)c2ccccc21 [compound (9), (3E)-3-((5-((E)-(1-acetyl-2-oxoindolin-3-ylidene)methyl)furan-2-yl)methylene)-2-oxoindoline-5-carboxylic acid sodium salt]
IC50 [8]: 1400 nM

Structure (SMILES): CC(=O)N1C(=O)/C(=C/c2ccc(/C=C3/C(=O)Nc4cc(C(=O)O)ccc43)o2)c2ccccc21 [compound (10), (3E)-3-((5-((E)-(1-acetyl-2-oxoindolin-3-ylidene)methyl)furan-2-yl)methylene)-2-oxoindoline-6-carboxylic acid sodium salt]
IC50 [8]: 580 nM

These reach a lower IC50 [8]. Values come first.

IC50 [8]: 10 nM
Structure (SMILES): CC(=O)N1C(=O)/C(=C/c2ccc(/C=C3/C(=O)N(C(C)=O)c4ccccc43)o2)c2ccccc21 [compound (2), (3E)-1-acetyl-3-[((5E)-((1-acetyl-2-oxoindolin-3-ylidene)methyl)furan-2-yl)methylene]indolin-2-one]
cell proliferation inhibitory effect and cell lethal effect [9]: has a cell proliferation inhibitory effect and a cell lethal effect | cell proliferation inhibitory effect and cell lethal effect ([2]; esophageal squamous cell carcinoma cell line (T.Tn), time course, FIG. 4): has a cell proliferation inhibitory effect and a cell lethal effect | cell proliferation inhibitory effect and cell lethal effect ([5]; lung cancer cell line (A549), time course, FIG. 4): has a cell proliferation inhibitory effect and a cell lethal effect

IC50 [8]: 26 nM
Structure (SMILES): CCCC(=O)N1C(=O)/C(=C/c2ccc(/C=C3/C(=O)N(C(=O)CCC)c4ccccc43)o2)c2ccccc21 [compound (7), (3E)-1-butyryl-3-[((5E)-((1-butyryl-2-oxoindolin-3-ylidene)methyl)furan-2-yl)methylene]indolin-2-one]
